Values after ≈ are worked out from the molar mass of the structure shown. Values belong to the molecule of their own block, whether it stands above or below them. Active and inactive are the calls of the source. No cut-off for these calls is given here.
Assays:
[1] = Prodrug conversion in human plasma assessed as drug release measured after 24 hrs by HPLC analysis; assay type: ADME, cell-free
[2] = Chemical stability in SIF at 2 mg/ml incubated for 2 hrs by HPLC analysis; assay type: physicochemical; settings: read-out: Stability
[3] = Chemical stability in water at 2 mg/ml incubated for 2 hrs by HPLC analysis; assay type: physicochemical; settings: read-out: Stability
[4] = Thermodynamic equilibrium solubility in water at 1 to 1200 ug incubated for 4 hrs by absorbance based assay; assay type: physicochemical; settings: dose 1-1200 µg, read-out: Therm_solubility
[5] = Thermodynamic equilibrium solubility SGF at 1 to 1200 ug incubated for 4 hrs by absorbance based assay; assay type: physicochemical; settings: dose 1-1200 µg, read-out: Therm_solubility
[6] = Thermodynamic equilibrium solubility SIF at 1 to 1200 ug incubated for 4 hrs by absorbance based assay; assay type: physicochemical; settings: dose 1-1200 µg, read-out: Therm_solubility
[7] = Chemical stability in SGF at 2 mg/ml incubated for 2 hrs by HPLC analysis; assay type: physicochemical; settings: read-out: Stability
[8] = Cmax in fasted Swiss mouse at 75 mg/kg, po measured for 24 hrs by LCMS/MS analysis; assay type: ADME, organism-based; set-up: dose 75 mg/kg, time 24 hrs, route po; settings: in vivo
[9] = AUC (0 to t) in fasted Swiss mouse at 75 mg/kg, po measured for 24 hrs by LCMS/MS analysis; assay type: ADME, organism-based; set-up: time 24 hrs, dose 75 mg/kg, route po; settings: in vivo
[10] = AUC (0 to infinity) in fasted Swiss mouse at 75 mg/kg, po measured for 24 hrs by LCMS/MS analysis; assay type: ADME, organism-based; set-up: dose 75 mg/kg, time 24 hrs, route po; settings: in vivo
[11] = Volume of distribution in fasted Swiss mouse at 75 mg/kg, po measured for 24 hrs by LCMS/MS analysis; assay type: ADME, organism-based; settings: in vivo
[12] = Clearance in fasted Swiss mouse at 75 mg/kg, po measured for 24 hrs by LCMS/MS analysis; assay type: ADME, organism-based; settings: in vivo
[13] = Cmax in fasted Wistar rat at 75 mg/kg, po measured for 24 hrs by LCMS/MS analysis; assay type: ADME, organism-based; set-up: time 24 hrs, dose 75 mg/kg, route po; settings: in vivo
[14] = AUC (0 to t) in fasted Wistar rat at 75 mg/kg, po measured for 24 hrs by LCMS/MS analysis; assay type: ADME, organism-based; set-up: dose 75 mg/kg, time 24 hrs, route po; settings: in vivo
[15] = AUC (0 to infinity) in fasted Wistar rat at 75 mg/kg, po measured for 24 hrs by LCMS/MS analysis; assay type: ADME, organism-based; set-up: time 24 hrs, dose 75 mg/kg, route po; settings: in vivo
[16] = Volume of distribution at steady state in fasted Wistar rat at 75 mg/kg, po measured for 24 hrs by LCMS/MS analysis; assay type: ADME, organism-based; settings: in vivo
[17] = Clearance in fasted Wistar rat at 75 mg/kg, po measured for 24 hrs by LCMS/MS analysis; assay type: ADME, organism-based; settings: in vivo
[18] = Oral bioavailability in Swiss mouse at 5 mg/kg measured for 24 hrs by LCMS/MS analysis; assay type: ADME, organism-based; settings: in vivo
[19] = in vivo; settings: Swiss, mouse, po, 75 mg/kg
Description: Tmax in fasted Swiss mouse at 75 mg/kg, po measured for 24 hrs by LCMS/MS analysis

[20] = in vivo; settings: Wistar, rat, po, 75 mg/kg
Description: Tmax in fasted Wistar rat at 75 mg/kg, po measured for 24 hrs by LCMS/MS analysis

[21] = Prodrug conversion in human plasma assessed as formation of O-{2-(4-cyclopropylpiperazin-1-yl)acetyl}cannabidiol metabolite measured for 1 to 8 hrs by HPLC analysis; assay type: ADME, cell-free; settings: time 1-8 hrs
[22] = Prodrug conversion in human plasma assessed as formation of O-(2-morpholinoacetyl)cannabidiol metabolite measured for 1 hr by HPLC analysis; assay type: ADME, cell-free
[23] = Volume of distribution in fasted Swiss mouse at 75 mg/kg, po equivalent to Cannabidiol measured for 24 hrs by LCMS/MS analysis; assay type: ADME, organism-based; settings: in vivo
[24] = Volume of distribution at steady state in fasted Wistar rat at 75 mg/kg, po equivalent to Cannabidiol measured for 24 hrs by LCMS/MS analysis; assay type: ADME, organism-based; settings: in vivo
[25] = tested on: Mus musculus; experiment: Antiepileptic activity in MES Swiss Albino mouse model assessed as decrease in convulsion duration at 75 mg/kg, po equivalent to Cannabidiol pretreated for 30 mins followed by induction of epileptic seizures measured for 1 to 8 hrs; assay type: functional, organism-based; settings: time 1.5-8.5 hrs
[26] = Stability in Balb/C mouse plasma assessed as compound degradation at 10 uM incubated for 2 hrs by LC-MS/MS analysis; assay type: ADME, cell-free; settings: read-out: Drug degradation

SMILES: C=C(C)[C@@H]1CCC(C)=C[C@H]1c1c(O)cc(CCCCC)cc1OC(=O)CN1CCN(c2ccccc2)CC1
- Drug metabolism [1]: 9.2%

SMILES: C=C(C)[C@@H]1CCC(C)=C[C@H]1c1c(O)cc(CCCCC)cc1OC(=O)CN1CCC(c2ccccc2)CC1
- Drug metabolism [1]: 4.6%

- remaining at 2 h, 2 mg/ml [2]: ≥ 74%
- remaining at 2 h, 2 mg/ml [3]: ≥ 74%
SMILES: O=C(O)CN1CCOCC1

SMILES: C=C(C)[C@@H]1CCC(C)=C[C@H]1c1c(O)cc(CCCCC)cc1O [CANNABIDIOL]
- solubility thermodynamic at 4 h [4]: < 5 µg/mL
- solubility thermodynamic at 4 h [5]: < 5 µg/mL
- solubility thermodynamic at 4 h [6]: < 5 µg/mL
- remaining at 2 h, 2 mg/ml [7]: ≥ 74%
- remaining at 2 h, 2 mg/ml [2]: ≥ 74%
- remaining at 2 h, 2 mg/ml [3]: ≥ 74%
- Cmax [8]: 669 ng/mL
- AUC(0-t) at 24 h [9]: 4660 ng·h/mL
- AUC(0-inf) [10]: 4870 ng·h/mL
- Vd [11]: 137 L/kg
- CL/F [12]: 250 mL/min/kg
- Cmax [13]: 728 ng/mL
- AUC(0-t) at 24 h [14]: 9460 ng·h/mL
- AUC(0-inf) [15]: 10200 ng·h/mL
- Vdss [16]: 77 L/kg
- CL/F [17]: 123 mL/min/kg
- bioavailability [18]: 24%
- Tmax at 24 h [19]: 2 h
- Tmax at 24 h [20]: 8 h

SMILES: C=C(C)[C@@H]1CCC(C)=C[C@H]1c1c(O)cc(CCCCC)cc1OC(=O)CN1CCN(C(C)C)CC1
- Drug metabolism [1]: 78%

- Drug metabolism [1]: 27%
- Drug metabolism [21]: Metabolite_Detected
SMILES: C=C(C)[C@@H]1CCC(C)=C[C@H]1c1c(OC(=O)CN2CCN(C3CC3)CC2)cc(CCCCC)cc1OC(=O)CN1CCN(C2CC2)CC1

SMILES: C=C(C)[C@@H]1CCC(C)=C[C@H]1c1c(OC(=O)CN2CCOCC2)cc(CCCCC)cc1OC(=O)CN1CCOCC1
- Drug metabolism [1]: 52%
- Drug metabolism [22]: Metabolite_Detected
- solubility thermodynamic at 4 h [4]: 120 µg/mL (≈ 211 µM)
- solubility thermodynamic at 4 h [5]: 4000 µg/mL (≈ 7030 µM)
- solubility thermodynamic at 4 h [6]: 120 µg/mL (≈ 211 µM)
- Vd [23]: 224 L/kg
- Vdss [24]: 93 L/kg
- Activity [25]: Active

- metabolised at 2 h, 10 µM [26]: > 80%
SMILES: CCOC(=O)[C@H](CCc1ccccc1)N[C@@H](C)C(=O)N1CCC[C@H]1C(=O)O [ENALAPRIL]

SMILES: C=C(C)[C@@H]1CCC(C)=C[C@H]1c1c(O)cc(CCCCC)cc1OC(=O)CN1CCN(C)CC1
- Drug metabolism [1]: 59%

SMILES: C=C(C)[C@@H]1CCC(C)=C[C@H]1c1c(O)cc(CCCCC)cc1OC(=O)CN1CCN(C2CC2)CC1
- Drug metabolism [1]: 56%

SMILES: C=C(C)[C@@H]1CCC(C)=C[C@H]1c1c(O)cc(CCCCC)cc1OC(=O)CN1CCOCC1
- Drug metabolism [1]: 84%
- solubility thermodynamic at 4 h [4]: 40 µg/mL (≈ 90.6 µM)
- solubility thermodynamic at 4 h [5]: 400 µg/mL (≈ 906 µM)
- solubility thermodynamic at 4 h [6]: 80 µg/mL (≈ 181 µM)
- Vd [23]: 108 L/kg
- Vdss [24]: 32 L/kg

- solubility thermodynamic at 4 h [4]: 40 µg/mL (≈ 140 µM)
- solubility thermodynamic at 4 h [5]: 40 µg/mL (≈ 140 µM)
- solubility thermodynamic at 4 h [6]: 60 µg/mL (≈ 210 µM)
SMILES: O=C(/C=C/C=C/c1ccc2c(c1)OCO2)N1CCCCC1 [PIPERINE]

SMILES: C=C(C)[C@@H]1CCC(C)=C[C@H]1c1c(O)cc(CCCCC)cc1OC(=O)CN1CCC(O)CC1
- Drug metabolism [1]: 73%

SMILES: C=C(C)[C@@H]1CCC(C)=C[C@H]1c1c(O)cc(CCCCC)cc1OC(=O)CN1CCCC1
- Drug metabolism [1]: 74%

Reference: ChEMBL document CHEMBL5357074, “Cannabidiol-Based Prodrugs: Synthesis and Bioevaluation” (ACS Med Chem Lett, 2024)
